Data published in patent US20220226269A1, “METHODS AND COMPOSITIONS FOR MODULATION OF AN INTERSPECIES GUT BACTERIAL PATHWAY FOR LEVODOPA METABOLISM” (President and Fellows of Harvard College, priority 2019, published 2022).
In brackets after ≈: the same amount, converted by molar mass. Several values for one entry are separate records, joined by “and”; a condition that tells them apart may be missing. Identical values can stand only once. Entries after “also recorded” stand apart in the source; their conditions may differ. Values belong to the molecule of their own block, whether it stands above or below them.

Legend:
[1] = test system: human fecal microbiota
Description: Fecal slurries from neurologically healthy human donors or Parkinson's patients were prepared as described in the ‘enrichment culturing’ section above. These slurries were diluted to a final volume of 300 μL in 20% glycerol and then aliquoted into individual tubes, flash-frozen in liquid nitrogen and stored at −80° C., allowing for experiments to be repeated with the same fecal sample multiple times without freeze-thawing.

[2] = Solubility limit noted in the inhibition assays; assay type: physicochemical
[3] = cited from earlier work
[4] = target: T1, H. sapiens AADC (Homo sapiens, UniProt P20711); experiment: Inhibition of L-dopa decarboxylation by purified AADC (LC-MS/MS)
T1 sequence (P20711 1-480): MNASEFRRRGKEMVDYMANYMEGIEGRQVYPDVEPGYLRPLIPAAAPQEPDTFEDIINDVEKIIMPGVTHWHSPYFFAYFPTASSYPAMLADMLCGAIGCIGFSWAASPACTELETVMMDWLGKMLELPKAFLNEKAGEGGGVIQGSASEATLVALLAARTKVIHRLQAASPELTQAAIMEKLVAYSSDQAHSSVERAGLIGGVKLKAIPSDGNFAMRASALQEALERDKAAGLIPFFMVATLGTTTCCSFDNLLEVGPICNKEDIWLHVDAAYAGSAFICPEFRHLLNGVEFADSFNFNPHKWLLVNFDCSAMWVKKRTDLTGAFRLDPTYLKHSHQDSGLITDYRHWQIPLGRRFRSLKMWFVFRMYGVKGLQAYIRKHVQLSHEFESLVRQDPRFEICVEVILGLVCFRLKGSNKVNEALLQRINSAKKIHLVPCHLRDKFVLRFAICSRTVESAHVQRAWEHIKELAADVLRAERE

[5] = target: T2, E. faecalis TyrDC (Enterococcus faecalis, UniProt P0DTQ4); experiment: Inhibition of L-dopa decarboxylation by purified TyrDC (LC-MS/MS); details: for preferential inhibition, AADC vs TyrDC: FIG. 4 panels B and E, in vitro; for IC50: IC50, L-dopa decarboxylation by TyrDC, purified E. faecalis TyrDC, 500 μM L-dopa, pH 5.5, best-fit ± standard error, n=3
T2 sequence (P0DTQ4 1-620): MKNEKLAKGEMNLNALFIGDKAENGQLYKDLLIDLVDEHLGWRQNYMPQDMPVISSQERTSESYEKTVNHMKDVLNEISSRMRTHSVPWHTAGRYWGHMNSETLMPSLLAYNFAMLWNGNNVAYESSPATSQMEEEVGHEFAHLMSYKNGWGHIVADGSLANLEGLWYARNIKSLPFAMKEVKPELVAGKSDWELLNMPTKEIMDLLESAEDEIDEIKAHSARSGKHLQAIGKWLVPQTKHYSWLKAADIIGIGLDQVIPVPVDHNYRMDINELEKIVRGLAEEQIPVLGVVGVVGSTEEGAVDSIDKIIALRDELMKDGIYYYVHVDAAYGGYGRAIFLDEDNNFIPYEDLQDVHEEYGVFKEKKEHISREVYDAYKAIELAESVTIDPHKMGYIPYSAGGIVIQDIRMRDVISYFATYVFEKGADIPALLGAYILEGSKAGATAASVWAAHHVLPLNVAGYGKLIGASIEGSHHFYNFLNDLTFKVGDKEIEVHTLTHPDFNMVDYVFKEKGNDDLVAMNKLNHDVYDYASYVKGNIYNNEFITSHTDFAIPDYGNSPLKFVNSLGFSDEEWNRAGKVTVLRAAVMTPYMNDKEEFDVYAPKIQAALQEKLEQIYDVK

[6] = test system: E. faecalis MMH594 cells; experiment: L-dopa decarboxylation in anaerobic E. faecalis cultures with inhibitor
[7] = test system: E. lenta A2; experiment: Effect of tungstate on dopamine dehydroxylation in cultures of E. lenta A2; assay type: cell-based, Eggerthella lenta; details: 48 hours, 0.5 mM dopamine
[8] = test system: E. lenta A2; experiment: Anaerobic growth of E. lenta A2 in the presence of tungstate; assay type: cell-based, Eggerthella lenta; details: BHI medium, varying concentrations of tungstate
[9] = test system: E. lenta A2 cell lysates; experiment: E. lenta A2 lysate assays with tungstate; assay type: biochemical, Eggerthella lenta; details: 500 μM dopamine, 12 hours, room temperature
Description: E. lenta A2 was grown either without or with 500 μM dopamine in BHI medium containing 1% (w/v) arginine and 10 mM formate. Cultures were spun down at OD600=0.500 and cell pellets were washed twice with anaerobic, sterile PBS to remove dopamine and any m-tyramine that had accumulated in the culture. Pellets were lysed anaerobically in 50 mM Tris pH 8 followed by addition of 500 μM dopamine (DA) to lysates. Lysates were left at room temperature for 12 hours and were analyzed for m-tyramine production by LC-MS/MS. Peak heights show the relative intensity of each mass and all chromatograms are shown on the same scale.
10 mL turbid 48-hour starter cultures of E. lenta A2 in BHI medium were diluted 1:100 into 20 mL BHI medium containing 1% arginine and 10 mM formate with or without 500 μM dopamine. Cells were pelleted by centrifugation when cultures reached OD600=0.500. Cell pellets were washed twice with PBS and were then re-suspended in 800 μL 50 mM Tris pH 8 containing 4 mg/mL […] protease inhibitor cocktail, followed by anaerobic sonication to lyse the cells. Dopamine was added to crude lysates at a final concentration of 500 μM and the reactions were left for 12 hours at room temperature under anaerobic conditions. […] Supernatant were analyzed by LC-MS/MS to measure dopamine and m-tyramine production using Method A described above. […]

[10] = target: T3, TyrDC (Enterococcus faecalis, UniProt P0DTQ4); experiment: Identification of a PLP-inhibitor adduct upon incubation of enzymes with AFMT; assay type: biochemical; details: TyrDC or AADC incubated with AFMT for 1 hour
T3 sequence (P0DTQ4 1-620): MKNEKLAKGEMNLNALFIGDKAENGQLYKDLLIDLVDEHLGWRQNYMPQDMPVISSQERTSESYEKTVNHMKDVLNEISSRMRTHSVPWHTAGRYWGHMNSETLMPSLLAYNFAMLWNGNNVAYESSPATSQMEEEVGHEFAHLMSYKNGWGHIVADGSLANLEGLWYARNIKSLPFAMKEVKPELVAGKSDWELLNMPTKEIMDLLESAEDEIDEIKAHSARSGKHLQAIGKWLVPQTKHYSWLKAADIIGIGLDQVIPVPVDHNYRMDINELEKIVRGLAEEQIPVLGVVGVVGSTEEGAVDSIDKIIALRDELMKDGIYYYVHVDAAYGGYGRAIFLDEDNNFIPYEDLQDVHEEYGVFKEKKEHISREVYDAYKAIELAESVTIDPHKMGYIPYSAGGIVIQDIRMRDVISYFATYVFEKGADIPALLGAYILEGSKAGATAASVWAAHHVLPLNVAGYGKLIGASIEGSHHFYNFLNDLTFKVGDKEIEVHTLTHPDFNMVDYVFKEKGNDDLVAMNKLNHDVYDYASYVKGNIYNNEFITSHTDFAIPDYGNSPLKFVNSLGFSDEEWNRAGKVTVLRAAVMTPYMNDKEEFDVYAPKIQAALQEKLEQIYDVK
Description: The same buffers as described above were used for each enzyme. 10 μM AADC or TyrDC was incubated with 200 μM PLP and 50 μM AFMT for one hour at room temperature. The reactions were quenched by boiling at 95° C. for 15 minutes. This mix was diluted 1:20 in LC-MS grade methanol and spun down to pellet precipitates. The supernatant was analyzed by LC-MS using Method E described above. The predicted adduct was identified based on the work described in.

[11] = test system: HeLa cells; experiment: MTS/MTT assay for HeLa cell viability in the presence of AFMT; assay type: cell-based; details: two days treatment
Description: HeLa cells were seeded in 100 μL growth medium [(DMEM medium supplemented with 10% FBS (2 mL) and 1× Antibiotic-Antimycotic (100× stock, Invitrogen))] and incubated at 37° C. in 5% CO2 incubator for 1 day. Wells containing growth medium only were used as background controls. Cells were treated with various concentrations of AFMT in quadruplicate. Two days post treatment, 20 μL of CellTiter 96® AQueous One Solution Reagent (Promega) was added to each well. The plates were incubated at 37° C. in 5% CO2 incubator for 2 hours followed by absorbance measurement at 490 nm. To calculate relative cell viability, the readings for each compound concentration were subtracted from the background controls and normalized to vehicle controls.
HeLa cells were seeded into 96-well plates at a density of 1×10^5 cells per well in 100 μL of growth medium [(DMEM medium supplemented with 10% FBS (2 mL) and 1× Antibiotic-Antimycotic (100× stock, Invitrogen))] and incubated at 37° C. in a 5% CO2 incubator for 1 day. Wells containing growth medium only were used as background controls. Cells were treated with various concentrations of AFMT in quadruplicate. […] To calculate relative cell viability, the readings for each compound concentration were subtracted from the background controls and normalized to vehicle controls

[12] = Pharmacokinetic experiment in gnotobiotic mice colonized with E. faecalis MMH594; assay type: in vivo; details: L-dopa+carbidopa+AFMT
[13] = test system: co-cultures of E. faecalis and E. lenta; experiment: L-dopa metabolism by co-cultures of E. faecalis and E. lenta with AFMT; details: 125 μM AFMT, 1 mM d3-phenyl-L-dopa, 48 hours
[14] = target: T2, E. faecalis TyrDC; experiment: Michaelis-Menten kinetics of E. faecalis TyrDC; details: for Vmax / kcat: substrate of TyrDC, best-fit ± standard error, n=3
[15] = substrate: N[C@@H](Cc1ccc(O)c(O)c1)C(=O)O; experiment: purified protein, by the assay type; details: other: substrate of TyrDC, pH 5.5
[16] = substrate: N[C@@H](Cc1ccc(O)cc1)C(=O)O; experiment: purified protein, by the assay type; details: other: substrate of TyrDC; best-fit ± standard error, n=3; pH 5.5
[17] = read-out: inhibition of AADC at solubility limit

Molecule: C[C@@](Cc1ccc(O)c(O)c1)(NN)C(=O)O [carbidopa]
kinetics of L-dopa degradation in stool samples ([1]; 2 mM carbidopa, 1 mM d3-phenyl-L-dopa, 72 hours): did not alter | endpoint m-tyramine production in stool samples ([1]; 2 mM carbidopa, Parkinson's patients and neurologically healthy controls): did not alter | solubility ([2]; E. faecalis cultures, plasma or biological fluid): 2000 µM (≈ 452 µg/mL) | m-tyramine production in patients ([3]; carbidopa administration, previous findings): does not impact | IC50 [4]: 210 nM | fold less active toward TyrDC relative to AADC ([5]; E. faecalis TyrDC vs H. sapiens AADC): 200 fold | preferential inhibition, AADC vs TyrDC [5]: preferentially inhibits human amino acid decarboxylase (AADC) over TyrDC | IC50 [5]: 52 µM | inhibition at 2000 µM ([6]; Enterococcus faecalis, MMH594CELLS, read-out: inhibition of L-dopa decarboxylation by E. faecalis cultures, at solubility limit of 2 mM): ~50% | inhibition of L-dopa decarboxylation by E. faecalis cultures ([6]; at solubility limit of 2 mM): 50% inhibition at

Molecule: [Na+].[Na+].[O]=[W](=[O])([O-])[O-] [tungstate, Sodium tungstate]
dopamine dehydroxylation by E. lenta A2 cultures [7]: inhibits | growth of E. lenta A2 [8]: without affecting growth; also recorded: no obvious dose-dependent growth defect | dopamine dehydroxylation by E. lenta A2 cell lysates [9]: had no effect; also recorded: no dose-dependent effect

Molecule: N[C@@](CF)(Cc1ccc(O)cc1)C(=O)O [AFMT]
L-dopa decarboxylation in gut microbiota samples ([1]; Parkinson's disease patients and neurologically healthy control subjects, 1 mM d3-phenyl-L-dopa, 72 hours): completely inhibited | covalent PLP adduct formation [10]: formed a covalent PLP adduct only in the presence of TyrDC | toxicity to eukaryotic cells [11]: non-toxic | serum L-dopa relative to vehicle controls [12]: higher | solubility ([2]; AADC inhibition assay mixture, AADC inhibition assay): 650 µM (≈ 139 µg/mL) | inhibition at 650 µM [4, 17]: ~20% | inhibition at 700 µM [4, 17]: 20% | preferential inhibition, AADC vs TyrDC [5]: preferentially inhibits TyrDC over AADC | IC50 [5]: 4.7 µM and 4.71 µM | L-dopa decarboxylation by co-cultures of E. faecalis and E. lenta [13]: reduced | fold outperforming carbidopa in E. faecalis cultures ([6]; AFMT vs carbidopa): 1000 fold | EC50 ([6]; Enterococcus faecalis, MMH594CELLS, read-out: EC50, L-dopa decarboxylation in E. faecalis cultures, E. faecalis MMH594 cells, 0.5 mM L-dopa, anaerobic): 1400 nM

Vmax [14]: 5.553 ± 0.165 ^ μM/s | kcat [14]: 55.53 ± 2.98 ^ 1/s
Molecule: N[C@@H](Cc1ccc(O)c(O)c1)C(=O)O [L-dopa]
L-dopa reaching the brain ([3]; extensive pre-systemic metabolism in the gut): 1-5%

Molecule: N[C@@H](Cc1ccc(O)cc1)C(=O)O [Tyrosine, L-tyrosine]
fold higher catalytic efficiency compared to L-dopa ([14]; TyrDC): 5 fold | Vmax [14]: 6.363 ± 0.102 µM/s | kcat [14]: 63.63 ± 1.02 s⁻¹

B1: E. faecalis TyrDC (Enterococcus faecalis EnGen0310 = MMH594) (protein)
chain: MKNEKLAKGEMNLNALFIGDKAENGQLYKDLLIDLVDEHLGWRQNYMPQDMPVISSQERTSESYEKTVNHMKDVLNEISSRMRTHSVPWHTAGRYWGHMNSETLMPSLLAYNFAMLWNGNNVAYESSPATSQMEEEVGHEFAHLMSYKNGWGHIVADGSLANLEGLWYARNIKSLPFAMKEVKPELVAGKSDWELLNMPTKEIMDLLESAEDEIDEIKAHSARSGKHLQAIGKWLVPQTKHYSWLKAADIIGIGLDQVIPVPVDHNYRMDINELEKIVRGLAEEQIPVLGVVGVVGSTEEGAVDSIDKIIALRDELMKDGIYYYVHVDAAYGGYGRAIFLDEDNNFIPYEDLQDVHEEYGVFKEKKEHISREVYDAYKAIELAESVTIDPHKMGYIPYSAGGIVIQDIRMRDVISYFATYVFEKGADIPALLGAYILEGSKAGATAASVWAAHHVLPLNVAGYGKLIGASIEGSHHFYNFLNDLTFKVGDKEIEVHTLTHPDFNMVDYVFKEKGNDDLVAMNKLNHDVYDYASYVKGNIYNNEFITSHTDFAIPDYGNSPLKFVNSLGFSDEEWNRAGKVTVLRAAVMTPYMNDKEEFDVYAPKIQAALQEKLEQIYDVK
Km ([15]; best-fit ± standard error, n=3): 1475 ± 79.28 ^ μM | Km [15]: 1.5 mM | Km [16]: 314.9 ± 15.5 µM
